In ChEMBL document CHEMBL3259577, “Antagonists of the kappa opioid receptor” (Bioorg Med Chem Lett, 2014):
Values belong to the compound of their own block, whether it stands above or below them. Peptide text beside a SMILES is read from it.

How the values were obtained:
[1] = target: T1, Delta-type opioid receptor (Homo sapiens, UniProt P41143); assay: Inhibition of delta opioid receptor (unknown origin) using SNC-80 by high content imaging beta-arrestin translocation assay
[2] = target: T1, Delta-type opioid receptor; assay: Agonist activity at human cloned delta opioid receptor expressed in CHO cells assessed as stimulation of [35S]-GTP[gammaS] binding; format: functional, cell-based
[3] = target: T2, Kappa-type opioid receptor (Homo sapiens, UniProt P41145); assay: Antagonist activity at human cloned kappa opioid receptor expressed in CHO cells assessed as inhibition of U50488-stimulated [35S]-GTP[gammaS] binding; format: functional, cell-based
[4] = target: T2, Kappa-type opioid receptor; assay: Agonist activity at human cloned kappa opioid receptor expressed in CHO cells assessed as stimulation of [35S]-GTP[gammaS] binding; format: functional, cell-based
Mu-type opioid receptor [5] = target: T3, Mu-type opioid receptor (Homo sapiens, UniProt P35372); assay: Agonist activity at human cloned mu opioid receptor expressed in CHO cells assessed as stimulation of [35S]-GTP[gammaS] binding; format: cell-based
[6] = target: Mu-type opioid receptor (Rattus norvegicus) (UniProt P33535); assay: Displacement of [3H]DAMGO from rat forebrain OPRM
[7] = target: Kappa-type opioid receptor (Rattus norvegicus) (UniProt P34975); assay: Displacement of [3H]CI977 from rat forebrain OPRK assessed as maximal binding after 30 mins
Rattus norvegicus = assay: Reduction in spiradoline-induced sc dosed rat plasma prolactin levels; format: functional; conditions: read-out: ID50 (the source's name)
[8] = target: Kappa-type opioid receptor (Rattus norvegicus) (UniProt P34975); assay: Displacement of [3H]CI977 from rat forebrain OPRK
Mu-type opioid receptor [9] = target: T3, Mu-type opioid receptor; assay: Inhibition of mu opioid receptor (unknown origin) using DAMGO by high content imaging beta-arrestin translocation assay
[10] = target: Muscarinic acetylcholine receptor M2 (Homo sapiens, UniProt P08172); assay: Binding affinity to muscarinic M2 receptor (unknown origin)
[11] = target: Muscarinic acetylcholine receptor M4 (Homo sapiens, UniProt P08173); assay: Binding affinity to muscarinic M4 receptor (unknown origin)
[12] = target: Sodium-dependent noradrenaline transporter (Homo sapiens, UniProt P23975); assay: Binding affinity to NET (unknown origin)
[13] = target: 5-hydroxytryptamine receptor 2B (Homo sapiens, UniProt P41595); assay: Binding affinity to 5-HT2B receptor (unknown origin)
[14] = target: Muscarinic acetylcholine receptor M3 (Homo sapiens, UniProt P20309); assay: Binding affinity to muscarinic M3 receptor (unknown origin)
Histamine H1 receptor = Histamine H1 receptor (Homo sapiens, UniProt P35367); assay: Binding affinity to histamine H1 receptor (unknown origin)
[15] = target: Sigma non-opioid intracellular receptor 1 (Homo sapiens, UniProt Q99720); assay: Binding affinity to sigma-1 receptor (unknown origin)
[16] = target: Muscarinic acetylcholine receptor M1 (Homo sapiens, UniProt P11229); assay: Binding affinity to muscarinic M1 receptor (unknown origin)
[17] = Drug metabolism in human liver microsomes assessed as compound remaining after 1 hr; format: ADME; conditions: read-out: Drug metabolism
[18] = target: Alpha-2C adrenergic receptor (Homo sapiens, UniProt P18825); assay: Binding affinity to adrenergic alpha2C receptor (unknown origin)
Cavia porcellus = species on record: Cavia porcellus; assay: Antagonist activity at delta opioid receptor in guinea pig caudate assessed as inhibition of SNC-80-stimulated [35S]-GTP[gammaS] binding
[19] = target: T2, Kappa-type opioid receptor; assay: Inhibition of kappa opioid receptor (unknown origin) using dynorphin A by DiscoveryRx b-arrestin PathHunter assay
Mu-type opioid receptor [20] = target: T3, Mu-type opioid receptor; assay: Antagonist activity at human cloned mu opioid receptor expressed in CHO cells assessed as inhibition of DAMGO-stimulated [35S]-GTP[gammaS] binding; format: cell-based
Mus musculus = species on record: Mus musculus; assay: Antinociceptive activity in mouse assessed as reversal of U50488-induced withdrawl latencies; format: functional
[21] = target: T2, Kappa-type opioid receptor; assay: Antagonist activity at human cloned kappa opioid receptor expressed in CHO cells assessed as inhibition of Dynorphin A-stimulated [35S]-GTP[gammaS] binding; format: functional, cell-based
[22] = target: T2, Kappa-type opioid receptor; assay: Inhibition of kappa opioid receptor (unknown origin) using dynorphin A by high content imaging beta-arrestin translocation assay
[23] = target: Kappa-type opioid receptor (Cavia porcellus) (UniProt P41144)
[24] = target: Mu-type opioid receptor (Cavia porcellus) (UniProt P97266); assay: Antagonist activity at mu opioid receptor in guinea pig caudate assessed as inhibition of DAMGO-stimulated [35S]-GTP[gammaS] binding; format: functional
Sequence of Mu-type opioid receptor (Cavia porcellus) (P97266 whole entry): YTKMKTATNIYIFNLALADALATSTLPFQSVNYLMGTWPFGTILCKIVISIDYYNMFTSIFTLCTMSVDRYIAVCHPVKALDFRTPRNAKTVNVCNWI

T3 sequence (P35372 whole entry): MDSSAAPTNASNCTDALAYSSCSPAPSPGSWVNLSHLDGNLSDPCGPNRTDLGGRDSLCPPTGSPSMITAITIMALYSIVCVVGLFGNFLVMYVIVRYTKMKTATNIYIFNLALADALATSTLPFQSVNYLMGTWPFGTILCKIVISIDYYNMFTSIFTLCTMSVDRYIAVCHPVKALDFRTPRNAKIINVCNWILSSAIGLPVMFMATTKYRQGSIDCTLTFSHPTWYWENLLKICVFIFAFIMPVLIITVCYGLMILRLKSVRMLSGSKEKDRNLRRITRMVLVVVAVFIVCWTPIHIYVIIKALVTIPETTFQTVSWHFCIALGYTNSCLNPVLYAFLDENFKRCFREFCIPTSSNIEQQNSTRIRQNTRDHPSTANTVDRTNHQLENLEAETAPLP
T2 sequence (P41145 whole entry): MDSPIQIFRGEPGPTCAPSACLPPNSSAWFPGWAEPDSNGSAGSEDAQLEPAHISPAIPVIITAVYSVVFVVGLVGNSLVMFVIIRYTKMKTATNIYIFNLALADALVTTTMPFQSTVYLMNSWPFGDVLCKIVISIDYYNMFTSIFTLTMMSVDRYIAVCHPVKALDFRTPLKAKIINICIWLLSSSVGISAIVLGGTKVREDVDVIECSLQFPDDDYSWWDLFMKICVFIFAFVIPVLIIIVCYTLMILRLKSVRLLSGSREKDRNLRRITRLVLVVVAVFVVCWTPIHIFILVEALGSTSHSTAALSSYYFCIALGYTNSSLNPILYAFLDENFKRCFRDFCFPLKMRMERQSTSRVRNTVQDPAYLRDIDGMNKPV
T1 sequence (P41143 whole entry): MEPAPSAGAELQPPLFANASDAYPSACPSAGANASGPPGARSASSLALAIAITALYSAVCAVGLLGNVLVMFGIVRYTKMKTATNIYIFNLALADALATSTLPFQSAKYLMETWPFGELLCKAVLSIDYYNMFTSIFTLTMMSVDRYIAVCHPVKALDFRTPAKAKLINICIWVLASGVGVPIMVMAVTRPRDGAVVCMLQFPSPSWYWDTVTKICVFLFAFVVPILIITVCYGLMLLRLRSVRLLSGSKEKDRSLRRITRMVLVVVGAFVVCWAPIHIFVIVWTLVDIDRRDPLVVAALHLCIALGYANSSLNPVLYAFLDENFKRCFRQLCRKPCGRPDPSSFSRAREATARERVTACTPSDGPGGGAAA
Sequence of Kappa-type opioid receptor (Rattus norvegicus) (P34975 whole entry): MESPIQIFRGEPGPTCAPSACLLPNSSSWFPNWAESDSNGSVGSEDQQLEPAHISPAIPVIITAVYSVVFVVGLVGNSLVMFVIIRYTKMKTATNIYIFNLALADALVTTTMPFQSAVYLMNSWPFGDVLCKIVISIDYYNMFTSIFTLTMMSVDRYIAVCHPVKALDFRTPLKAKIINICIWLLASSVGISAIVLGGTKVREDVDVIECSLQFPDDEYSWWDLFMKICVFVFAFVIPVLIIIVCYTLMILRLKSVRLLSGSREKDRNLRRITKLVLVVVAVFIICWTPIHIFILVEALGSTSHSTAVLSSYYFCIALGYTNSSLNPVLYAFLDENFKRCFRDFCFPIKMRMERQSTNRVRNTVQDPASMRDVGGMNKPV
Sequence of Sigma non-opioid intracellular receptor 1 (Q99720 whole entry): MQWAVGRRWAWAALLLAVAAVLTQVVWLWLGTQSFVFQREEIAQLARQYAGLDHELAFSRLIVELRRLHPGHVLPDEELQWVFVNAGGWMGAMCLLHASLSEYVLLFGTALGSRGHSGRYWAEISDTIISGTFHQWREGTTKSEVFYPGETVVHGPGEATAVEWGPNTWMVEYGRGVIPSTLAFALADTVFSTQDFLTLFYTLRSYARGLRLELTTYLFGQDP
Sequence of Mu-type opioid receptor (Rattus norvegicus) (P33535 whole entry): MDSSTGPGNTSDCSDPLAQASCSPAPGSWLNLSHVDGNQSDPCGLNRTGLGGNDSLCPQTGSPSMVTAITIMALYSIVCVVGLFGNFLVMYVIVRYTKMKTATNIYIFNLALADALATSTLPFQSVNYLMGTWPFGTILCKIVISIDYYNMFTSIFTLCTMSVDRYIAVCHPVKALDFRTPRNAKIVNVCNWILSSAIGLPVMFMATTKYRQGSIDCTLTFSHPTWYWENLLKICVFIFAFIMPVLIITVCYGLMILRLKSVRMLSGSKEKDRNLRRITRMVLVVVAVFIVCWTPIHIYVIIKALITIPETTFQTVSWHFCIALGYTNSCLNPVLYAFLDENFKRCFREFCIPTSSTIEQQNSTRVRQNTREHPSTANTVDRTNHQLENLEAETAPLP
Sequence of Muscarinic acetylcholine receptor M4 (P08173 whole entry): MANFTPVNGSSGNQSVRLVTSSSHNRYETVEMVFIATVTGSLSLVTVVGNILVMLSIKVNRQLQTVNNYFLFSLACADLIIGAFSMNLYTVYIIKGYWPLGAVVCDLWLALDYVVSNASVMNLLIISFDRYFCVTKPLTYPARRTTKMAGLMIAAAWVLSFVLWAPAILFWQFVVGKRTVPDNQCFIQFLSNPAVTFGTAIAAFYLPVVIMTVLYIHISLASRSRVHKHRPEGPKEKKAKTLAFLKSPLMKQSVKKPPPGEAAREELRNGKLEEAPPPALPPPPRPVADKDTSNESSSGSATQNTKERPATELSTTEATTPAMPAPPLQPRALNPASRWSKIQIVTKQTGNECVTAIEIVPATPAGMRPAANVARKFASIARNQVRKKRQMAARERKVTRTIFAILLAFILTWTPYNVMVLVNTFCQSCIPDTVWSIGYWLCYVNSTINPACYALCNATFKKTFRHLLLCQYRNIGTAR
Sequence of Alpha-2C adrenergic receptor (P18825 whole entry): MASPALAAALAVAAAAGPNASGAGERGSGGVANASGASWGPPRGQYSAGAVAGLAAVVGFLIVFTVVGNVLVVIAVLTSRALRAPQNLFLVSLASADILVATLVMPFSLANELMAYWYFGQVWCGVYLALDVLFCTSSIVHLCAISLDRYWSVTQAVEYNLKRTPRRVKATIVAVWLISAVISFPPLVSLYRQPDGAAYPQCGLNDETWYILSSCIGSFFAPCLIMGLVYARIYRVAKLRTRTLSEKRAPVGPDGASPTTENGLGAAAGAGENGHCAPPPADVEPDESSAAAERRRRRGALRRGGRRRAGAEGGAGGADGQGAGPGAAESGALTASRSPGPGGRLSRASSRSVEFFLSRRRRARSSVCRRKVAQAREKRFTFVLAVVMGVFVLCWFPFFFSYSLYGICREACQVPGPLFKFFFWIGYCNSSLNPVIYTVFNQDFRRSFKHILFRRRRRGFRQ
Sequence of Histamine H1 receptor (P35367 whole entry): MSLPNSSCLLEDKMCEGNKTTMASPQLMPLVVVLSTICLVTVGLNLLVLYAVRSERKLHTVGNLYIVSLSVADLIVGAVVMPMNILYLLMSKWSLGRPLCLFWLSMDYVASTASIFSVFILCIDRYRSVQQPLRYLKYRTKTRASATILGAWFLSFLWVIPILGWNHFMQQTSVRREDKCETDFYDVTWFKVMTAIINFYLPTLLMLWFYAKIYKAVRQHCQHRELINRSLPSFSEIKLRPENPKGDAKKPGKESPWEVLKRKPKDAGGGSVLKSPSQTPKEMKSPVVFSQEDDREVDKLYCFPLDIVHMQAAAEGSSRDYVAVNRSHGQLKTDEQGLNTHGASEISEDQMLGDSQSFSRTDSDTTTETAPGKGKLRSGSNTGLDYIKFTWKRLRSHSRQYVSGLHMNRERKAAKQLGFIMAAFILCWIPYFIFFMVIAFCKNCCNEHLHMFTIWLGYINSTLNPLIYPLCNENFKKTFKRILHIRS
Sequence of Sodium-dependent noradrenaline transporter (P23975 whole entry): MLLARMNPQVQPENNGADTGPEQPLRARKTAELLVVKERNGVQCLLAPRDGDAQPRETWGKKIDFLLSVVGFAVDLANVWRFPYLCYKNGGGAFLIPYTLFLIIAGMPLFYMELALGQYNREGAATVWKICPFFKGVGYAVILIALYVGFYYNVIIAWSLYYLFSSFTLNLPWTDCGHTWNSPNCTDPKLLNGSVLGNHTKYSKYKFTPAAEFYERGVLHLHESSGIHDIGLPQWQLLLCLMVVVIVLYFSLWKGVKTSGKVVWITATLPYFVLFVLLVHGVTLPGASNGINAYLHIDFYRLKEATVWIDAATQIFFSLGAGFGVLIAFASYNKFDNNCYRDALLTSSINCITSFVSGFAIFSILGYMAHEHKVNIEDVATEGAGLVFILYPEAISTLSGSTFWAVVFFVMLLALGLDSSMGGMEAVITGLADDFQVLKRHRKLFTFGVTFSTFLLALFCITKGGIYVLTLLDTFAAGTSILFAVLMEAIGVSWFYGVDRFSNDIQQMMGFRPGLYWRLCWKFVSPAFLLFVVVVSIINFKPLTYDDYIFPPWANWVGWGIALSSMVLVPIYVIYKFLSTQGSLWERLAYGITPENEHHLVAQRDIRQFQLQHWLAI
Sequence of 5-hydroxytryptamine receptor 2B (P41595 whole entry): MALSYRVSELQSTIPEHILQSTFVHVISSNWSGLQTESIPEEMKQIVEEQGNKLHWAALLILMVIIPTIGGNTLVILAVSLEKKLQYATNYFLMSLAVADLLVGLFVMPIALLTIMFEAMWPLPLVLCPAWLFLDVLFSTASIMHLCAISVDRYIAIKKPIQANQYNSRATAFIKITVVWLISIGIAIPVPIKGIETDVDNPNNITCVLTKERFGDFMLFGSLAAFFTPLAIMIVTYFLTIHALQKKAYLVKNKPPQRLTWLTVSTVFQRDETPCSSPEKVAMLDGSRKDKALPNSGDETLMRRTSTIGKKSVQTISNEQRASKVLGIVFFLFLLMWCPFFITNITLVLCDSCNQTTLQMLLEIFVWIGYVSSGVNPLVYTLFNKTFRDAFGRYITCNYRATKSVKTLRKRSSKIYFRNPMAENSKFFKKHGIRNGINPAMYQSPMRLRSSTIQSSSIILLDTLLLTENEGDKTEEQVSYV

IC50 [1]: > 32 µM
SMILES: COc1ccc(N2CCN(CCCNC(=O)Cn3c(=O)c4cccn4c4cc(Br)cnc43)CC2)cc1

SMILES: CC1CN(CCCc2ccccc2)C2C[C@H](N)CC1(c1cccc(O)c1)C2 (stereo partly drawn)
EC50 [2]: 7.5 µM | Ke [3]: 10.1 nM | EC50 [4]: > 5 µM | EC50 (Mu-type opioid receptor [5]): 19.5 µM

SMILES: CC(C)CNCc1ccc(-c2ccccc2S(=O)(=O)N2CCCC2)cc1 [PF-04455242]
ID50 [6]: 8.6 mg/kg | Activity [7]: 82% | ED50 (Rattus norvegicus): 2.3 mg/kg | ID50 [8]: 2 mg/kg

SMILES: CO[C@H]1Cc2ccc(O)cc2C(C)(C)[C@@H]1N
Activity (Mu-type opioid receptor [5]): 31.6% | EC50 (Mu-type opioid receptor [5]): 0.234 µM

IC50 (Mu-type opioid receptor [9]): > 32 µM | IC50 [1]: > 32 µM
SMILES: Cc1ccc(S(=O)(=O)NCc2ccc(C(=O)NCCN(Cc3ccc(Br)cc3)C(C)C)cc2)cc1

Ki [10]: < 1000 nM | Ki [11]: < 1000 nM | Ki [12]: < 1000 nM | Ki [13]: < 1000 nM | Ki [14]: < 1000 nM | IC50 (Mu-type opioid receptor [9]): > 24 µM | IC50 [1]: > 32 µM | Ki (Histamine H1 receptor): < 1000 nM | Ki [15]: < 1000 nM | Ki [16]: < 1000 nM | remaining at 1 h [17]: 0.07% | Ki [18]: < 1000 nM
SMILES: Cc1ccc(S(=O)(=O)NCc2ccc(C(=O)NCCN(Cc3ccccc3)C(C)C)cc2)cc1

SMILES: CC(C)[C@@H](CN1CC[C@@](C)(c2cccc(O)c2)[C@@H](C)C1)NC(=O)[C@H]1Cc2ccc(O)cc2CN1C
Ke (Cavia porcellus): > 300 nM

IC50 (Mu-type opioid receptor [9]): > 32 µM | IC50 [1]: > 32 µM | IC50 [19]: 1120 nM
SMILES: CCc1ccc(S(=O)(=O)NCc2ccc(C(=O)NCCN(Cc3ccccc3)C(C)C)cc2)cc1

SMILES: O=C1N[C@@H](Cc2ccccc2)C(=O)N2CCC[C@H]2C(=O)N[C@@H](Cc2ccccc2)C(=O)N[C@H]1Cc1c[nH]c2ccccc12 (cyclo(FPFW))
Kb (Mu-type opioid receptor [20]): 10.2 nM | Time (Mus musculus): >24 h | Kb [21]: 65.2 nM

IC50 [22]: 1300 nM | IC50 (Mu-type opioid receptor [9]): > 32 µM | IC50 [1]: > 32 µM | IC50 [19]: 1950 nM
SMILES: COc1ccc(N2CCN(CCCNC(=O)Cn3c(=O)c4cccn4c4cccnc43)CC2)cc1

SMILES: CC1CN(CCCc2ccccc2)C2C[C@H](NCC3CC3)CC1(c1cccc(O)c1)C2 (stereo partly drawn)
EC50 [2]: > 5 µM | EC50 [4]: > 5 µM | EC50 (Mu-type opioid receptor [5]): 130 µM

SMILES: CC(C)[C@@H](CN1CC[C@@](C)(c2cccc(O)c2)[C@@H](C)C1)NC(=O)[C@@H]1Cc2ccc(O)cc2CN1
Ke (Cavia porcellus): 327 nM

SMILES: C[C@@H]1NC(=O)[C@@H]2CCCN2C(=O)[C@H](Cc2ccccc2)NC(=O)[C@H](Cc2c[nH]c3ccccc23)NC1=O (cyclo(AWFP))
Time (Mus musculus): <18 h

IC50 (Mu-type opioid receptor [9]): > 32 µM | IC50 [1]: > 32 µM | IC50 [19]: 690 nM
SMILES: Cc1ccnc2c1n1cccc1c(=O)n2CC(=O)NCCCN1CCN(c2ccc(Cl)cc2)CC1

SMILES: CC(C)[C@@H](CN1CC[C@@](C)(c2cccc(O)c2)[C@@H](C)C1)NC(=O)[C@H](N)Cc1ccc(O)cc1
Ke [23]: 44.6 nM | Ke [24]: 12 nM | Ke (Cavia porcellus): 334 nM

IC50 [1]: > 32 µM
SMILES: CCN(CCNC(=O)c1ccc(CNS(=O)(=O)c2ccc(C)cc2)cc1)Cc1ccccc1
